According to PMC12030314, “Biomarker-Driven Pharmacokinetics and Efficacy of Polymyxin B in Critically Ill Patients with XDR-GN Pneumonia” (Pharmaceuticals, 2025):
Where a SMILES comes first, the peptide text is derived from it. Bridges are numbered along the chain shown (N, C = ends). [ ]: non-standard residue; d: D form. The star is where a group is joined. X1 = CC[C@H](C)CCCCC(=O)*; Dab = NCC[C@H](N)C(=O)O

Columns and labels:
plasma protein = assay: Binding of PMB in plasma, rapid equilibrium dialysis; assay type: in vitro ADME; settings: human, rapid equilibrium dialysis (Pierce RED), pooled patient plasma pH 7.4, 300 μL against PBS pH 7.4, 37 °C, triplicate, mean, read-out: plasma protein-binding ratio (converted)
Experimental: The plasma protein binding of PMB was determined by rapid equilibrium dialysis device purchased from Thermo Scientific™ (Pierce RED, CAS90006, Rockford, IL, USA). For each patient, three plasma samples (totaling approximately 1 ml) were pooled (pH adjusted to 7.4), and the test was performed in triplicate. For each, 300 μL was dialyzed against an equal volume of isotonic phosphate-buffered saline (pH 7.4) at 37 °C for 4 h. PMB concentrations were determined, and the extent of protein binding was calculated as 1 minus the ratio of the PMB concentration in the buffer to that in the plasma and is expressed as a percentage.

[1] = cited from earlier work
Description: Colistin (colistin methanesulfonate, CMS) and polymyxin B (PMB) are polymyxins that were approved for clinical use in the 1950s worldwide. Colistin is clinically administered as a prodrug, which requires conversion to the active form in vivo. […] The elimination of colistin is primarily dependent on renal function. Patients with renal impairment are prone to drug accumulation and increased nephrotoxicity risk. PMB is ... || Finally, we cannot rule out the possibility of the potential impacts of other combined drugs on PMB PK and the heterogeneity among the patients in our study. To date, little evidence supports the conclusion that the combined use of other drugs affects PMB PK. Studies have shown that urinary recovery from PMB is low (<5%). […] Further studies examining the nonrenal routes of PMB elimination are warranted, ...

PK/PD targets attainment = assay type: in vivo, human
Experimental: The primary PD response was evaluated by PK/PD indices. An AUCss,0–24h of 50–100 mg·hour/L or a Css,avg of 2–4 mg/L was used as the PK/PD targets for PMB. The secondary PD response was evaluated by clinical parameters. An achievement of the treatment success at the end of treatment was defined by either (1) physicians’ judgment of improvement in signs and symptoms (reasonable compromise on the basis of survival, stable, or improved haemodynamics and oxygenation index and improved chemical and physiological indices of infection) or (2) microbiological elimination. […] The percentage of patients who achieved the PK/PD targets or treatment success was calculated. Variables potentially related to clinical efficacy were assessed. Receiver operating characteristic (ROC) curves were drawn to investigate and compare different indices as predictors of clinical efficacy. The optimal cutoff point for the PK/PD indices was calculated with the Youden index.

Structure (SMILES): CC[C@H](C)CCCCC(=O)N[C@@H](CCN)C(=O)N[C@H](C(=O)N[C@@H](CCN)C(=O)N[C@H]1CCNC(=O)[C@H]([C@@H](C)O)NC(=O)[C@H](CCN)NC(=O)[C@H](CCN)NC(=O)[C@H](CC(C)C)NC(=O)[C@@H](Cc2ccccc2)NC(=O)[C@H](CCN)NC1=O)[C@@H](C)O [PMB, polymyxin B] (X1-[Dab]T[Dab][Dab][Dab][dF]L[Dab][Dab]T; lactam 4-C)
- fraction unbound at 4 h (plasma protein): 0.145
- urinary recovery [1]: < 5%
- hepatobiliary metabolism (non-renal clearance) ([1]; in vivo): ~60%
- treatment success among patients who reached the target Css,avg of 2–4 mg/L (PK/PD targets attainment; 9 patients): 77.78%
- treatment success among patients who reached the target AUCss,0–24h of 50–100 (PK/PD targets attainment; 13 patients): 76.95%
- treatment success among patients who exceeded the target AUCss,0–24h (PK/PD targets attainment; in vivo): 92.31%
